From patent US20080004282A1, “Compositions and methods for modulating gated ion channels” (PainCeptor Pharma Corporation, priority 2006, published 2008)

How the values were obtained:
ASIC1a [1] = target: T1, ASIC1a (Homo sapiens, UniProt P78348); experiment: Two-electrode voltage clamp of acid-induced currents in Xenopus laevis oocytes; assay type: cell-based; set-up: expressed in transfected cells; host or cells: Xenopus laevis oocytes, nuclear microinjection of an expression vector such as pCDNA3; details: for inhibition at 50 µM: Xenopus oocytes, read-out: % inh. at 50 μM (Xo)
T1 sequence (P78348 1-528): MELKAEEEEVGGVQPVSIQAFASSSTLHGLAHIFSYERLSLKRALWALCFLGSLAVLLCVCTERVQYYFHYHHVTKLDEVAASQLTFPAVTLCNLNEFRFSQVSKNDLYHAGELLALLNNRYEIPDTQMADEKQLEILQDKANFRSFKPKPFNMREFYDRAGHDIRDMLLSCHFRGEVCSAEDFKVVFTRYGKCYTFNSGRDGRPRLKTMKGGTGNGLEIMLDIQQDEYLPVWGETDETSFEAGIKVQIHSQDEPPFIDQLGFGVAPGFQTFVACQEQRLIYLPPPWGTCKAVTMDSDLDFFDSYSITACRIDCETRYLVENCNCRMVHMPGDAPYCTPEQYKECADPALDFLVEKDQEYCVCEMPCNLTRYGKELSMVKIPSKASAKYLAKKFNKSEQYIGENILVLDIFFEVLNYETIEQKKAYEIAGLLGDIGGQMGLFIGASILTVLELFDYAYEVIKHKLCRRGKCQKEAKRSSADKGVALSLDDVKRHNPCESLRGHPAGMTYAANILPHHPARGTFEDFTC
Procedure: Screening and Bioanalysis of ASIC Antagonists in Xenopus laevis oocytes
This example describes the in vitro assessment of the activity of the compounds of the present invention.
Two-electrode voltage clamp electrophysiological assays in Xenopus laevis oocytes expressing gated ion channels are performed as follows:
Oocytes are surgically removed from adult Xenopus laevis and treated for 2 h at room temperature with 1 mg/ml type I collagenase (Sigma) in Barth's solution under mild agitation. Selected oocytes at stage IV-V are defolliculated manually before nuclear microinjection of 2.5-5 ng of a suitable expression vector, such as pCDNA3, comprising the nucleotide sequence encoding a gated ion channel subunit protein. In such an experiment, the oocytes express homomultimeric proton-gated ion channels on their surface. In an alternate experiment, one, two, three or more vectors comprising the coding sequences for distinct gated ion channel subunits are co-injected in the oocyte nuclei. In the latter case, oocytes express heteromultimeric proton-gated ion channels. For example, ASIC2a and/or ASIC3 subunits in pcDNA3 vector are co-injected at a 1:1 cDNA ratio. After 2-4 days of expression at 19° C. in Barth's solution containing […] gentamicin and 1.8 mM CaCl2, gated ion channels are activated by applying an acidic solution (pH<7) and currents are recorded in a two electrode voltage-clamp configuration, using an OC-725B amplifier (Warner Instruments). Currents are acquired and digitized at 500 Hz on an Apple Imac G3 computer with an A/D NB-MIO-16XL interface (National Instruments) and recorded traces are post-filtered at 100 Hz in Axograph (Axon Instruments) (Neher, E. and Sakmann, B. (1976) Nature 260:799-802). Once impaled with the microelectrodes, oocytes are continuously superfused at 10-12 ml/min with a modified Ringer's solution containing 97 mM NaCl, 2 mM KCl, 1.8 mM CaCl2, and 10 mM HEPES brought to pH 7.4 with NaOH (Control Ringer). Test Ringer solution is prepared by replacing HEPES with MES and adjusting the pH to the desired acidic value. Compounds of the present invention are prepared in both the Control and Test Ringer solutions and applied to oocytes at room temperature through a computer-controlled switching valve system. Osmolarity of all solutions is adjusted to 235 mOsm with choline chloride. Similarly, recordings can also be acquired in an automated multichannel oocytes system as the OpusExpress™ (Molecular Devices, Sunnyvale, USA).
FIGS. 1A and 2A illustrate the inhibitory effects of Compounds 12 and 44 on acid-induced activation of recombinant homomeric hASIC1a channels. FIGS. 1A and 2A show the dose-dependent inhibition of the acid-induced hASIC1a currents recorded from Xenopus laevis oocytes using the two-electrode voltage clamp method (as described in this example) in the absence or presence of increasing concentration of the compounds.

ASIC1a [2] = target: T1, ASIC1a; experiment: Calcium-imaging (FLIPR) of MES-induced calcium response in ASIC1a expressing HEK293 cells; assay type: cell-based; set-up: host or cells: HEK293
Procedure: Identification of ASIC Antagonists Using Calcium-Imaging
ASIC1a expressing HEK293 cells are grown in culture medium (DMEM with 10% FBS), in polystyrene culture flasks (175 mm 2) at 37° C. in a humidified atmosphere of 5% CO2. Confluency of cells should be 80-90% on day of plating. Cells are rinsed with 10 ml of PBS and cells are re-suspended by addition of culture medium and trituration with a 25 ml pipette.
The cells are seeded at a density of approximately 1×10^6 cells/ml (100 μl/well) in black-walled, clear bottom, 96-well plates pre-treated with 10 mg/l poly-D-lysin (75 μl/well for ≧30 min). Plated cells are allowed to proliferate for 24 h before loading with dye.
Loading with Fluorescent Calcium Dye Fluo-4/AM
Fluo-4/AM (1 mg, Molecular Probes) is dissolved in 912 μl DMSO. The Fluo-4/AM stock solution (1 mM) is diluted with culture medium to a final concentration of 2 μM (loading solution).
The culture medium is aspirated from the wells, and 50 μl of the Fluo-4/AM loading solution is added to each well. The cells are incubated at 37° C. for 30 min.
After the loading period, the loading solution is aspirated and the cells are washed twice with 100 μl modified Assay Buffer (145 mM NaCl, 5 mM KCl, 5 mM CaCl2, 1 mM MgCl2, 10 mM HEPES, pH 7.4) to remove extracellular dye. Following the second wash, 100 μl modified Assay Buffer is added to each well and the fluorescence is measured in FLIPR™ or FlexStation™ (Molecular Devices, USA), or any other suitable equipment known to the skilled in the art.
Temperature: Room temperature (20-22° C.)
First addition: 50 μl test solution at a rate of 30 μl/sec and a starting height of […]
Second addition: 50 μl MES solution (20 mM, 5 mM final concentration) at a rate of 35 μl/sec and a starting height of 150 μl.
Reading intervals: pre-incubation—10 sec×7 and 3 sec×3 antagonist phase—3 sec×17 and 10 sec×12
Addition plates (compound test plate and MES plate) are placed on the right and left positions in the FLIPR tray, respectively. Cell plates are placed in the middle position and the ASIC1a program is effectuated. FLIPR will then take the appropriate measurements in accordance with the interval settings above. Fluorescence obtained after stimulation is corrected for the mean basal fluorescence (in modified Assay Buffer).
Hit Confirmation and Characterization of Active Substances
The MES-induced peak calcium response, in the presence of test substance, is expressed relatively to the MES response alone. Test substances that block the MES-induced calcium response are re-tested in triplicates. […]

Row | SMILES | IC50 (ASIC1a [1]) | inhibition at 50 µM (ASIC1a [1]) | IC50 (ASIC1a [2]) | IC50 (ASIC1a [1]; Xenopus laevis oocytes, three point dose-response, read-out: IC50, half maximal inhibition of the acid-evoked response in hASIC1a)
1 | CCN1CCc2c(-c3cc(Cl)ccc3OC)cc(C#N)c(N)c2C1 [Compound 44] | 8.5 µM | > 50% | < 10 µM | –
2 | CCN1CCc2c(-c3ccccc3)cc(C#N)c(N)c2C1 [Compound 12, 8-Amino-2-ethyl-5-phenyl-1,2,3,4-tetrahydro-isoquinoline-7-carbonitrile] | – | > 50% | – | 5.9 µM
